Laboratory results from article PMC5007978, “A chemical with proven clinical safety rescues Down-syndrome-related phenotypes in through DYRK1A inhibition” (Disease Models & Mechanisms, 2016).

Experiments:
DYRK4 = biological target: T1, DYRK4 (Homo sapiens, UniProt Q9NR20); assay: In vitro kinase assay, recombinant human DYRK4 (Life Technologies); format: biochemical
T1 construct: purchased Life Technologies (Kinase Profiler service)
T1 sequence (Q9NR20 1-520): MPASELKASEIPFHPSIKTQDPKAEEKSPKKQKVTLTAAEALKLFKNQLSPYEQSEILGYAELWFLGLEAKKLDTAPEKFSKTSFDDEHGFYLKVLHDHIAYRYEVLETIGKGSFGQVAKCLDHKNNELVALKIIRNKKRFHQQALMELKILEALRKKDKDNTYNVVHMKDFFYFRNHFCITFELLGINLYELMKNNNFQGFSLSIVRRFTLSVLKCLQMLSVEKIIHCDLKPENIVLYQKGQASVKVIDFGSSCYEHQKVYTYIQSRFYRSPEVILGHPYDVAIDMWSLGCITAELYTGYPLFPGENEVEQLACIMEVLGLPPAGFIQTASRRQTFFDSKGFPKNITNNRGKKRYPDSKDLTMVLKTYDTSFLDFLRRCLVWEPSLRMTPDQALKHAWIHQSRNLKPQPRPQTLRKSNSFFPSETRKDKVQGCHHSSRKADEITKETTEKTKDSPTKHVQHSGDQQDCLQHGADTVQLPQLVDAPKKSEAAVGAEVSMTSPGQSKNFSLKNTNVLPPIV

[1] = system: mnb-overexpressing Drosophila; assay: Embryonic neurological phenotype with pan-neuronal mnb overexpression (elav::synGFP); format: in vivo
Source text: The expression of human Tau in Drosophila retinal tissue (GMR>Tau) produced a small rough eye phenotype (GMR>Tau in Fig. 6A and B), as described previously ([Jackson et al., 2002]). […] Pan-neuronal mnb overexpression (elav::synGFP>mnb) caused severe neurogenic defects in both the central and peripheral nervous system during embryogenesis [elav::synGFP>mnb (DMSO) in Fig. 6C]. […] Moreover, the viability of adult flies with the neuronal overexpression of mnb was examined. Pan-neuronal overexpression of mnb caused high rates of mortality in adult flies (∼70%, Fig. 6D).
Fig. 6. CX-4945 rescues neurological and phenotypic defects in an mnb-overexpressing Drosophila model. (A) The eyes of adult flies overexpressing mnb and/or human Tau under the control of the eye-specific GMR-Gal4 driver, and of control flies bearing only GMR-Gal4. Overexpression of mnb aggravated the eye abnormality induced by Tau overexpression. […] White dashed lines outline the eye contour. (B) The retinal surface areas were measured on multiple samples (n>10) from each genotype, and average eye sizes were presented as normalized percentages of the DMSO-treated GMR-Gal4 control. (C) The brain cortex, primary neuronal cell clusters and axon bundle, as visualized with GFP (green) using UAS-Synaptobrevin-GFP driven by elav-Gal4 at the late embryonic stage 18. […]

O=C(O)c1ccc2c(c1)nc(Nc1cccc(Cl)c1)c1ccncc12 [CX-4945]
IC50 (DYRK4): 1500 nM | effect on control flies lacking mnb overexpression ([1]; 100 nM, elav::synGFP>control): little noticeable effect | neurogenic defects of mnb-overexpressing embryos ([1]; parent flies fed 100 nM, elav::synGFP>mnb): restored these neurogenic defects
